In the supplement of paper PMC10307832:

What was measured:
Assay in all cases: relative viability (nuclei count vs DMSO), 5 days (fraction); higher = more cells survive
Daporinad + Decitabine = compound: O=C(/C=C/c1cccnc1)NCCCCC1CCN(C(=O)c2ccccc2)CC1 [Daporinad] + Nc1ncn([C@H]2C[C@H](O)[C@@H](CO)O2)c(=O)n1 [Decitabine] (partner 2 µM)
Procedure, shortened: (§1)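 For relative viability, nuclei counts in treated wells were divided by those in vehicle wells. Lung cancer cell lines had been pin-tool dosed in 1536-well plates the day after seeding and cultured for 5 days, then fixed and stained in one step (final 0.05% Triton X-100, 1% formaldehyde, 1 ug/ml Hoechst) and imaged at 4×. Doses were one drug alone or a fixed anchor-drug dose plus five library-drug doses (not always all listed) in √10 steps, and values are duplicate-plate medians.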

R406 + Pemetrexed = compound: COc1cc(Nc2ncc(F)c(Nc3ccc4c(n3)NC(=O)C(C)(C)O4)n2)cc(OC)c1OC [R406] + Nc1nc2[nH]cc(CCc3ccc(C(=O)N[C@@H](CCC(=O)O)C(=O)O)cc3)c2c(=O)[nH]1 [Pemetrexed] (partner 0.2 µM)
Procedure, shortened: as §1

Daporinad + OSI-027 = compound: O=C(/C=C/c1cccnc1)NCCCCC1CCN(C(=O)c2ccccc2)CC1 [Daporinad] + COc1cccc2cc(-c3nc([C@H]4CC[C@H](C(=O)O)CC4)n4ncnc(N)c34)[nH]c12 [OSI-027] (partner 0.5 µM)
Procedure, shortened: as §1

Daporinad + Olaparib = compound: O=C(/C=C/c1cccnc1)NCCCCC1CCN(C(=O)c2ccccc2)CC1 [Daporinad] + O=C(c1cc(Cc2n[nH]c(=O)c3ccccc23)ccc1F)N1CCN(C(=O)C2CC2)CC1 [Olaparib] (partner 8 µM)
Procedure, shortened: as §1

| Cell Line | relative viability (Daporinad + Decitabine; first compound 0.0005 µM) | relative viability (Daporinad + Decitabine; first compound 0.001581 µM) | relative viability (Daporinad + Decitabine; first compound 0.005 µM) | relative viability (Daporinad + Decitabine; first compound 0.01581 µM) | relative viability (R406 + Pemetrexed; first compound 0.08 µM) | relative viability (R406 + Pemetrexed; first compound 0.253 µM) | relative viability (R406 + Pemetrexed; first compound 0.8 µM) | relative viability (R406 + Pemetrexed; first compound 2.53 µM) | relative viability (R406 + Pemetrexed; first compound 8 µM) | relative viability (Daporinad + OSI-027; first compound 0.0005 µM) | relative viability (Daporinad + OSI-027; first compound 0.001581 µM) | relative viability (Daporinad + OSI-027; first compound 0.005 µM) | relative viability (Daporinad + OSI-027; first compound 0.01581 µM) | relative viability (Daporinad + Olaparib; first compound 0.0005 µM) | relative viability (Daporinad + Olaparib; first compound 0.001581 µM) | relative viability (Daporinad + Olaparib; first compound 0.005 µM) | relative viability (Daporinad + Olaparib; first compound 0.01581 µM) |
| --- | --- | --- | --- | --- | --- | --- | --- | --- | --- | --- | --- | --- | --- | --- | --- | --- | --- |
| RERF-LC-KJ | 0.565 | 0.697 | 0.758 | 0.827 | 0.457 | 0.487 | 0.473 | 0.458 | 0.381 | 0.541 | 0.63 | 0.648 | 0.612 | 0.867 | 0.896 | 0.82 | 0.757 |
| BEN | 0.799 | 0.783 | 0.803 | 0.835 | 0.773 | 0.879 | 0.805 | 0.835 | 0.438 | 0.276 | 0.301 | 0.299 | 0.287 | 0.827 | 1.02 | 1.02 | 0.914 |
| NCI-H1666 | 0.666 | 0.712 | 0.814 | 0.718 | 0.825 | 1.05 | 0.86 | 0.718 | 0.674 | 0.822 | 0.989 | 0.826 | 0.896 | 0.754 | 0.644 | 0.669 | 0.679 |
| LC-2-ad | 0.769 | 0.882 | 0.743 | 0.838 | 0.281 | 0.322 | 0.238 | 0.238 | 0.216 | 0.832 | 1.12 | 1.06 | 1.01 | 0.664 | 0.662 | 0.441 | 0.398 |
| SW 1573 | 0.472 | 0.499 | 0.406 | 0.197 | 0.815 | 0.898 | 0.903 | 0.601 | 0.324 | 0.564 | 0.705 | 0.581 | 0.455 | 0.367 | 0.312 | 0.323 | 0.274 |
